Read-outs that look alike come from different tables or passages of the source.
How the values were obtained:
AKI in adult patients = assay: Epidemiologic EHR analysis (Vanderbilt 'Synthetic Derivative') of montelukast use and AKI; format: in vivo, human; conditions: N=3,721 adult patients, 147 users; logistic regression adjusted for race, sex, age, BMI, asthma; 95% CI: 13 to 56%; AKI defined as printed '≥21.5-fold serum creatine increase from baseline'
Excerpt: Epidemiologic EHR data from Vanderbilt's ‘Synthetic Derivative’ was examined to determine whether montelukast use is associated with decreased AKI. Individuals eligible for inclusion in the dataset included those with two or more serum creatinine labs occurring after montelukast gained marketing approval (N=3,721), and children were excluded. Montelukast users were defined as those with ≥23 mentions of montelukast where 22 mentions are 230 days apart (N=147). AKI was defined as a ≥21.5-fold serum creatine increase from baseline (N=1,220). ‘Case users’ were defined as those who qualified as both an AKI case and a montelukast user (N=58). Crude and adjusted odds ratios (OR) and 95% confidence intervals (CI) were calculated using logistic regression.

animal models = conditions: cited from earlier work
[1] = cited from earlier work
asthma patients (FEV1) = conditions: cited from earlier work
[2] = cited from earlier work; remark: listed apart in the source
[3] = single oral dose of 10, 100, or 250 mg

CC(C)(O)c1ccccc1CC[C@@H](SCC1(CC(=O)O)CC1)c1cccc(/C=C/c2ccc3ccc(Cl)cc3n2)c1 [Montelukast, [R-(E)]-1-[[[1-[3-[2-(7-chloro-2-quinolinyl)ethenyl]phenyl]-3-[2-(1-hydroxy-1-methylethyl)phenyl]propyl]thio]methyl]cyclopropaneacetic acid]
reduced odds (risk) of AKI, montelukast users compared to non-users (AKI in adult patients): 38%
markers of inflammation (animal models): attenuate markers of inflammation
markers of oxidative stress (animal models; leukotriene antagonists such as montelukast): attenuate markers of oxidative stress
plasma concentration in dose ranging study ([1]; dose ranging study of 20-800 mg): dose-dependent increase in plasma concentration
half-life ([1]; human, in vivo): 5 h
potential for drug-drug interactions ([1]; human, in vivo): low potential for drug-drug interactions
steady state plasma levels achieved ([1]; human, in vivo): 2 Day of dosing
pharmacokinetics in elderly volunteers versus younger adults ([1]; oral 10 mg, elderly (aged 265 years as printed) vs younger adults (aged 20 to 45 years)): similar
elimination via the renal route ([1]; package insert): not significantly eliminated via the renal route
FEV1 increase at higher doses versus 10 mg once daily (asthma patients (FEV1); 200 mg three times per day): failed to increase FEV1 more than 10 mg once daily
period for which FEV1 effects were maintained (asthma patients (FEV1); [3]): 24 h
time to significant improvement of FEV1 after administration (asthma patients (FEV1); [3]): ≤ 1 h
adverse events ([2]; 200 mg three times per day for 10 days): no significant adverse events
safety or effectiveness in subjects 65 years and over versus younger subjects ([2]; clinical studies of montelukast, 3.5% were 65 and over, 0.4% were 75 and over): No overall differences in safety or effectiveness
neuropsychiatric disturbances ([2]; phase IV post marketing studies, chronic montelukast users, additional research did not support this finding): concern for neuropsychiatric disturbances was noted
adverse events ([2]; single doses of 800 mg): no significant adverse events
